Assay results: patent US20240101576A1, “HETEROCYCLIC INHIBITORS OF EGFR AND/OR HER2, FOR USE IN THE TREATMENT OF CANCER” (Scorpion Therapeutics, Inc., priority 2020, published 2024)

Legend:
Format in all cases: cell-based
EGFR WT (Ba/F3 cells) = molecular target: T1, EGFR WT (Ba/F3 cells) (Homo sapiens, UniProt P00533); experiment: Inhibitor activity on EGFR-dependent cell growth (CellTiter-Glo, 72 h), Ba/F3 EGFR WT; settings: read-out: BaF3 WT IC50
T1 construct: expressed in transfected cells; host or cells: Ba/F3 (murine pro-B cells), retroviral transduction, puromycin selection, maintained with EGF
In short: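 This growth assay used Ba/F3 cells that depend on wild-type EGFR and are kept in EGF without IL3. Compounds were made up as 10 mM DMSO stocks and diluted 3-fold over 10 points. 120 nL went onto 600 cells/well. After 72 hours, 40 μL CellTiter-Glo was added and luminescence read on EnVision after 30 min.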

[1] = molecular target: T2, EGFR exon 20 NPG Ins D770_N771 (Ba/F3 cells) (Homo sapiens, UniProt P00533, INS770NPG); experiment: Inhibitor activity on EGFR-dependent cell growth (CellTiter-Glo, 72 h), Ba/F3 EGFR exon 20 NPG Ins; settings: read-out: BaF3 NPG IC50
T2 construct: expressed in transfected cells; host or cells: Ba/F3 (murine pro-B cells), retroviral transduction, puromycin selection, IL3-independent pool
In short: (§1)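 IC50s derive from a sigmoidal dose–response fit of CellTiter-Glo signal. The signal was normalised between […]-treated cells and cell-free medium. Ba/F3 mutant-EGFR cells, seeded at 400–800/well depending on the line, had 72 h of exposure to a 10-point, 3-fold compound series.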

[2] = molecular target: T3, EGFR exon 20 ASV Ins V769_D770 (Ba/F3 cells) (Homo sapiens, UniProt P00533, INS769ASV); experiment: Inhibitor activity on EGFR-dependent cell growth (CellTiter-Glo, 72 h), Ba/F3 EGFR exon 20 ASV Ins; settings: read-out: BaF3 ASV IC50
T3 construct: expressed in transfected cells; host or cells: Ba/F3 (murine pro-B cells), retroviral transduction, puromycin selection, IL3-independent pool
In short: as §1

[3] = molecular target: T4, EGFR exon 20 SVD Ins D770_N771 (Ba/F3 cells) (Homo sapiens, UniProt P00533, INS770SVD); experiment: Inhibitor activity on EGFR-dependent cell growth (CellTiter-Glo, 72 h), Ba/F3 EGFR exon 20 SVD Ins; settings: read-out: BaF3 SVD IC50
T4 construct: expressed in transfected cells; host or cells: Ba/F3 (murine pro-B cells), retroviral transduction, puromycin selection, IL3-independent pool
In short: as §1

[4] = molecular target: T5, EGFR exon 20 FQEA Ins A763_V764 (Ba/F3 cells) (Homo sapiens, UniProt P00533, INS763FQEA); experiment: Inhibitor activity on EGFR-dependent cell growth (CellTiter-Glo, 72 h), Ba/F3 EGFR exon 20 FQEA Ins; settings: read-out: BaF3 FQEA IC50
T5 construct: expressed in transfected cells; host or cells: Ba/F3 (murine pro-B cells), retroviral transduction, puromycin selection, IL3-independent pool
In short: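 Ba/F3 cells engineered with each EGFR variant were plated (400, 600 or 800 per well for L858R, L858R/C797S, and exon 19del/FQEA). They were exposed for 72 hours to compound serially diluted from a 10 mM DMSO stock. Remaining viable cells were quantified by CellTiter-Glo, and IC50 was curve-fitted.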

[5] = molecular target: T3, EGFR exon 20 ASV Ins V769_D770 (Ba/F3 cells); experiment: Inhibitor activity on EGFR phosphorylation (pEGFR AlphaLISA, 2 h), Ba/F3 EGFR exon 20 ASV Ins
In short: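 Ba/F3 cells made IL3-independent by retroviral EGFR mutant expression (puromycin-selected, pooled) and CUTO14 cells were seeded at 50K or 12.5K cells/well, respectively. They were treated 2 h with a 3-fold, 10-point compound series, lysed, and phospho-EGFR was read by AlphaLISA to give IC50.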

[6] = EGFR phosphorylation, AlphaLISA, 2 hours, read-out: ASV IC50 (pEGFR)

T2 sequence (P00533 with tags, fused parts or gaps INS770NPG): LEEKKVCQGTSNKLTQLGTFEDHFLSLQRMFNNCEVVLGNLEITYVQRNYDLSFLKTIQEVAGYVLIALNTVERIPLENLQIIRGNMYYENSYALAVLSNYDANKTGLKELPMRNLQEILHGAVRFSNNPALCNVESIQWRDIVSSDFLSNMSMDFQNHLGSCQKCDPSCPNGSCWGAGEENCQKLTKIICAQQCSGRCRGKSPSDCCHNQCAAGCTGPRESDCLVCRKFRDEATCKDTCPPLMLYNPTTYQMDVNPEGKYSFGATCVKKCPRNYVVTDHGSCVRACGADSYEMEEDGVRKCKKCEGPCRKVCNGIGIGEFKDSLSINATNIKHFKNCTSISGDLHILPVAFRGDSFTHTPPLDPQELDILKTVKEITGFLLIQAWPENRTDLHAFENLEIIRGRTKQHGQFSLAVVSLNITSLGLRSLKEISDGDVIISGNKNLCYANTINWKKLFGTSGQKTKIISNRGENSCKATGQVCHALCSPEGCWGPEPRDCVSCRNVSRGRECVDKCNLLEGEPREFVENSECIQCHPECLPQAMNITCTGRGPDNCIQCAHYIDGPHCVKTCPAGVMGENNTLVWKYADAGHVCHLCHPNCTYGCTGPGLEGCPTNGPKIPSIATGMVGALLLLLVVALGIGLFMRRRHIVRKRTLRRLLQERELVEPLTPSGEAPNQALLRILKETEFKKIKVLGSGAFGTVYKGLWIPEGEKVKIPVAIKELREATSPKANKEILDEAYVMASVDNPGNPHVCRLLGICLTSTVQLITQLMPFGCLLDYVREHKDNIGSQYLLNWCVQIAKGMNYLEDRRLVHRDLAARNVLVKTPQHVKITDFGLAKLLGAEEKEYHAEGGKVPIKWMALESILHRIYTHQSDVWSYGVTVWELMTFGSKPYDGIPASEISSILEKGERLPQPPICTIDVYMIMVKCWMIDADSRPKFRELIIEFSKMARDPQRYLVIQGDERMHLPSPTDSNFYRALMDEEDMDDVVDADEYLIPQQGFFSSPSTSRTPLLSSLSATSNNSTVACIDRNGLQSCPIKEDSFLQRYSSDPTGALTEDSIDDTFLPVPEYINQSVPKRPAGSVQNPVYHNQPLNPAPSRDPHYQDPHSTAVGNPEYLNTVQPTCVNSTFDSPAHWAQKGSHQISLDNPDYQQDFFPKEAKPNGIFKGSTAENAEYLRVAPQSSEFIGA
T3 sequence (P00533 with tags, fused parts or gaps INS769ASV): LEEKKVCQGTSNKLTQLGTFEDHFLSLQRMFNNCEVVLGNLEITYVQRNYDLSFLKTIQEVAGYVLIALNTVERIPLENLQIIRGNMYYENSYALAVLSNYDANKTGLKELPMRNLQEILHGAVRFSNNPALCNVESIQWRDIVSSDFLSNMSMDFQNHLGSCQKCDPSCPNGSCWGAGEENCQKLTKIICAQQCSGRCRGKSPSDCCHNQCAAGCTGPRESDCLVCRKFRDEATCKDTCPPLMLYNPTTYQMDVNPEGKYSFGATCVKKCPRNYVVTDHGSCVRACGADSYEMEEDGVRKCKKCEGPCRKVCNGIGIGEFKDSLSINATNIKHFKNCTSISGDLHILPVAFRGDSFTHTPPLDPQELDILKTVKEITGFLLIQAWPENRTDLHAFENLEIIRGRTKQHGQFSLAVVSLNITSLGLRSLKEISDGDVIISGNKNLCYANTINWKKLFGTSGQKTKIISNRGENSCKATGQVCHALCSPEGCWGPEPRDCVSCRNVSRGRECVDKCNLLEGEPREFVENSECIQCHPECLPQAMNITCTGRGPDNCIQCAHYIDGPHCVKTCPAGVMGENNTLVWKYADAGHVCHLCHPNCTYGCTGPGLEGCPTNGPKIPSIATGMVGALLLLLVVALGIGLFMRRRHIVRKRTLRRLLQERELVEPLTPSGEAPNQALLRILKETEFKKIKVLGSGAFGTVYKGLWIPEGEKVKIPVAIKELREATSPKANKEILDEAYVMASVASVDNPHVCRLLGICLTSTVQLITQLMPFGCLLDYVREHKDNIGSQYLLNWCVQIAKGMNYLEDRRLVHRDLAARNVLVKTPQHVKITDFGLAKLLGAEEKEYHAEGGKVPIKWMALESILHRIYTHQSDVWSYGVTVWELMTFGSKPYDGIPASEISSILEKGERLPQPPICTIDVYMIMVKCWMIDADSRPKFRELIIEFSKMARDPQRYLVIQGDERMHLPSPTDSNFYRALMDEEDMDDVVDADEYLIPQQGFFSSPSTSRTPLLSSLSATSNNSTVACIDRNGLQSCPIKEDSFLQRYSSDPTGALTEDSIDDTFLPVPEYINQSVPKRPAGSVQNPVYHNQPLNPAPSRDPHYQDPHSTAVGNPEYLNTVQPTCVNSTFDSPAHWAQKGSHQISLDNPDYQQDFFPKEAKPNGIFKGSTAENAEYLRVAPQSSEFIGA
T1 sequence (P00533 25-1210): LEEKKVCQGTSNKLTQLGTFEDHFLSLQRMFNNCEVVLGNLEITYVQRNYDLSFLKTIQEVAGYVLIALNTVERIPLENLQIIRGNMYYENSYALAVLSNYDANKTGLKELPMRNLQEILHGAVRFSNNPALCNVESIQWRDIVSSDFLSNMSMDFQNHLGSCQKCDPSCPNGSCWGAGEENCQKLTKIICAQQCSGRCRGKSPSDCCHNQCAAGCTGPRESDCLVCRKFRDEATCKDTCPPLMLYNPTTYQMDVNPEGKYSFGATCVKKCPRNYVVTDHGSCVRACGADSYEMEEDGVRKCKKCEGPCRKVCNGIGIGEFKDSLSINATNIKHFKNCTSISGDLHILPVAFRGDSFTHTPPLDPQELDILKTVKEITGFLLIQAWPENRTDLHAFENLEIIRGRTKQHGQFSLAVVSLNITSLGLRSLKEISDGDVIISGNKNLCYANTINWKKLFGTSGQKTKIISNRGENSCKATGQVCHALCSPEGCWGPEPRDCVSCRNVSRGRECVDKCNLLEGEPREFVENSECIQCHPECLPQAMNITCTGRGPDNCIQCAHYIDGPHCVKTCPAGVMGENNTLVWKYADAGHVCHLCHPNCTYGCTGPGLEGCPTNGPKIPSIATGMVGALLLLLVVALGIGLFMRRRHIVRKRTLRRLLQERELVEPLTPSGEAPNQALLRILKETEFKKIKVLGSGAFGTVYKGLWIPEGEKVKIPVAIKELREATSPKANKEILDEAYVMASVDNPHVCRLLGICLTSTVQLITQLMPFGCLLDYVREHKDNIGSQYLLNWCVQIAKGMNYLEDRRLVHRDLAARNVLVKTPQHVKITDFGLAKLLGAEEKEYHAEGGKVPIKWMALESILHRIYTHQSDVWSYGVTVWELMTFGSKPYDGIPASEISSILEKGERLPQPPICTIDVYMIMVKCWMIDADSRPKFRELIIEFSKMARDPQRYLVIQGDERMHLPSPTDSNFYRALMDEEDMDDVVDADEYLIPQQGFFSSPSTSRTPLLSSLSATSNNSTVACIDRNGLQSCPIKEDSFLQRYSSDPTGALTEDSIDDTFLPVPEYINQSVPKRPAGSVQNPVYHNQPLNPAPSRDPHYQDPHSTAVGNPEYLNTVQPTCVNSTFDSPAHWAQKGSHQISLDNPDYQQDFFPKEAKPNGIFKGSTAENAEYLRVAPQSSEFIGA
T5 sequence (P00533 with tags, fused parts or gaps INS763FQEA): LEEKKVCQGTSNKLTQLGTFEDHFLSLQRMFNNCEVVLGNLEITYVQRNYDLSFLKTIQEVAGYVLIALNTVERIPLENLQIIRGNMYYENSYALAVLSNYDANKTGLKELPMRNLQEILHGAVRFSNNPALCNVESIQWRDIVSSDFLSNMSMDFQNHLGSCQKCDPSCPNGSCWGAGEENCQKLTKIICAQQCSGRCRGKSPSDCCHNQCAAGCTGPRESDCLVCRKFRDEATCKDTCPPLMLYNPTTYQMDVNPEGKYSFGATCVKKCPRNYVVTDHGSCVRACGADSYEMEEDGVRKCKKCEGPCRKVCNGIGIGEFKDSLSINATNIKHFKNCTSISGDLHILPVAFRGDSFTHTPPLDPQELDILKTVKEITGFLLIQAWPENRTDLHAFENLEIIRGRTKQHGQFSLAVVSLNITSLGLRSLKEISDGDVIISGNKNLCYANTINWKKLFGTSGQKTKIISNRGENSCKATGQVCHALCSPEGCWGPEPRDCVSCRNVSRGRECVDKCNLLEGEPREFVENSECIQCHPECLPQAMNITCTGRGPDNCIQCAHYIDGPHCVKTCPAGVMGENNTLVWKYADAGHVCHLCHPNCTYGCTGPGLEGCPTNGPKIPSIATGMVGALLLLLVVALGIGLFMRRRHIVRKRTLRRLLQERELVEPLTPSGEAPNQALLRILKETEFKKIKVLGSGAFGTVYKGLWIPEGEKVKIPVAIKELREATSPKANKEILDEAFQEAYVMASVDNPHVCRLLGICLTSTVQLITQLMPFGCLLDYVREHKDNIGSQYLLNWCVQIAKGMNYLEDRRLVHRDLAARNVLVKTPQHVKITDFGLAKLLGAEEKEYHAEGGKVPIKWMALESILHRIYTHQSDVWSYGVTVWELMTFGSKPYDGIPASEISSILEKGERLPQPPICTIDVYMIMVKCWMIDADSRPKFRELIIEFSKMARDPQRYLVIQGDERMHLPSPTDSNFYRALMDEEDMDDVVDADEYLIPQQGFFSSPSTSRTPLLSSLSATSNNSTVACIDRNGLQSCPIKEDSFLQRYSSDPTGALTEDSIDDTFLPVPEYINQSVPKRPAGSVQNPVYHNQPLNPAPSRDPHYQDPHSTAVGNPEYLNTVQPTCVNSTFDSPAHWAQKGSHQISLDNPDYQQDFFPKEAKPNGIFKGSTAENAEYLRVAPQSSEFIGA

Structure (SMILES)	IC50 (EGFR WT (Ba/F3 cells))	IC50 [1]	IC50 [2]	IC50 [3]	IC50 [4]	IC50 [5, 6]	IC50 [5]
COc1c(Cl)cccc1Nc1c(-c2ncnc3[nH]ccc23)[nH]c2c1C(=O)NCC2 [compound 289]	> 1000 nM	> 1000 nM	> 1000 nM	> 1000 nM	> 1000 nM	> 1000 nM	
COc1c(Cl)cccc1Nc1c(-c2ccnc3[nH]ccc23)[nH]c2c1C(=O)NCC2 [compound 218]	> 1000 nM	> 1000 nM	100 to 1000 nM	100 to 1000 nM	100 to 1000 nM	< 100 nM	
Nc1nccc(-c2[nH]c3c(c2Nc2cccc(Cl)c2F)C(=O)NCC3)n1 [Compound 706, 2-(2-aminopyrimidin-4-yl)-3-[(3-chloro-2-fluorophenyl)amino]-1H,5H,6H,7H-pyrrolo[3,2-c]pyridin-4-one]	100 to 1000 nM	< 100 nM			100 to 1000 nM		< 100 nM
COc1c(Cl)cccc1Nc1c(-c2ccnc(NC(=O)c3cccc(F)c3)n2)[nH]c2c1C(=O)NCC2 [compound 102]	> 1000 nM	100 to 1000 nM	100 to 1000 nM	100 to 1000 nM	100 to 1000 nM	< 100 nM	
COc1c(F)cccc1Nc1c(-c2ccnc3ccc(OC4CC4)nc23)[nH]c2c1C(=O)NCC2 [Compound 696, 2-(6-cyclopropoxy-1,5-naphthyridin-4-yl)-3-[(3-fluoro-2-methoxyphenyl)amino]-1H,5H,6H,7H-pyrrolo[3,2-c]pyridin-4-one; trifluoroacetic acid]	< 100 nM	< 100 nM	< 100 nM	< 100 nM	< 100 nM	< 100 nM	
COc1c(F)cccc1Nc1c(-c2nc(N)ncc2F)[nH]c2c1C(=O)NCC2 [Compound 688, 2-(2-amino-5-fluoropyrimidin-4-yl)-3-[(3-fluoro-2-methoxyphenyl)amino]-1H,5H,6H,7H-pyrrolo[3,2-c]pyridin-4-one]	> 1000 nM	> 1000 nM	> 1000 nM	> 1000 nM	> 1000 nM	> 1000 nM	
COc1c(Cl)cccc1Nc1c(-c2nc(N)ncc2F)[nH]c2c1C(=O)NCC2 [compound 295]	> 1000 nM	> 1000 nM	100 to 1000 nM	> 1000 nM	100 to 1000 nM	100 to 1000 nM	
COc1nn(C)cc1Nc1nccc(-c2[nH]c3c(c2Nc2cccc(Cl)c2OC)C(=O)NCC3)n1 [compound 219]	< 100 nM	< 100 nM	< 100 nM	< 100 nM	< 100 nM	< 100 nM	
COc1c(F)cccc1Nc1c(-c2ccnc3ccc(NC(C)(C)C)nc23)[nH]c2c1C(=O)NCC2 [Compound 694, 2-[6-(tert-butylamino)-1,5-naphthyridin-4-yl]-3-[(3-fluoro-2-methoxyphenyl)amino]-1H,5H,6H,7H-pyrrolo[3,2-c]pyridin-4-one]	< 100 nM	< 100 nM	< 100 nM	< 100 nM	< 100 nM	< 100 nM	
COc1c(F)cccc1Nc1c(-c2ccnc3ccc(N(C)C)nc23)[nH]c2c1C(=O)NCC2 [Compound 697, 2-[6-(dimethylamino)-1,5-naphthyridin-4-yl]-3-[(3-fluoro-2-methoxyphenyl)amino]-1H,5H,6H,7H-pyrrolo[3,2-c]pyridin-4-one]	< 100 nM	< 100 nM	< 100 nM	< 100 nM	< 100 nM	< 100 nM	
COc1c(Cl)cccc1Nc1c(-c2ccnc3c2OCCN3)[nH]c2c1C(=O)NCC2 [compound 292]	> 1000 nM	100 to 1000 nM	100 to 1000 nM	100 to 1000 nM	100 to 1000 nM	< 100 nM	

Further lines, with some results ahead:

IC50 (EGFR WT (Ba/F3 cells))	IC50 [1]	IC50 [2]	IC50 [3]	IC50 [4]	IC50 [5, 6]	Structure (SMILES)	IC50 [5]
> 1000 nM	100 to 1000 nM	100 to 1000 nM	100 to 1000 nM	> 1000 nM	100 to 1000 nM	COc1c(Cl)cccc1Nc1c(-c2ccnc(NC(C)C)n2)[nH]c2c1C(=O)NCC2 [compound 225]	
> 1000 nM	100 to 1000 nM			100 to 1000 nM	100 to 1000 nM	COc1c(Nc2c(-c3ccnc(N)n3)[nH]c3c2C(=O)NCC3)cccc1C(F)(F)F [Compound 698, 2-(2-aminopyrimidin-4-yl)-3-[[2-methoxy-3-(trifluoromethyl)phenyl]amino]-1H,5H,6H,7H-pyrrolo[3,2-c]pyridin-4-one]	
> 1000 nM	100 to 1000 nM			100 to 1000 nM	< 100 nM	CCc1c(Cl)cccc1Nc1c(-c2ccnc(N)n2)[nH]c2c1C(=O)NCC2 [compound 297]	
> 1000 nM	> 1000 nM	> 1000 nM	> 1000 nM	> 1000 nM	> 1000 nM	COc1c(Cl)cccc1Nc1c(-c2ccnc(NCCN(C)C)n2)[nH]c2c1C(=O)NCC2 [Compound 707, 3-((3-chloro-2-methoxyphenyl)amino)-2-(2-((2-(dimethylamino)ethyl)amino)pyrimidin-4-yl)-1,5,6,7-tetrahydro-4H-pyrrolo[3,2-c]pyridin-4-one]	
> 1000 nM	100 to 1000 nM	> 1000 nM	> 1000 nM	100 to 1000 nM	100 to 1000 nM	Nc1nccc(-c2[nH]c3c(c2Nc2cccc(C(F)(F)F)c2)C(=O)NCC3)n1 [compound 199]	
> 1000 nM	> 1000 nM	> 1000 nM	> 1000 nM	> 1000 nM	100 to 1000 nM	COc1c(Cl)cccc1Nc1c(-c2ccnc(NCC(F)(F)F)n2)[nH]c2c1C(=O)NCC2 [Compound 701, 3-[(3-chloro-2-methoxyphenyl)amino]-2-[2-[(2,2,2-trifluoroethyl)amino]pyrimidin-4-yl]-1H,5H,6H,7H-pyrrolo[3,2-c]pyridin-4-one]	
100 to 1000 nM	< 100 nM			100 to 1000 nM	< 100 nM	Cc1c(Cl)cccc1Nc1c(-c2ccnc(N)n2)[nH]c2c1C(=O)NCC2 [compound 725, 2-(2-aminopyrimidin-4-yl)-3-[(3-chloro-2-methylphenyl)amino]-1H,5H,6H,7H-pyrrolo[3,2-c]pyridin-4-one; trifluoroacetic acid]	
> 1000 nM	> 1000 nM	> 1000 nM	> 1000 nM	> 1000 nM	100 to 1000 nM	COc1c(Cl)cccc1Nc1c(-c2ccnc(NC[C@@H]3CCCO3)n2)[nH]c2c1C(=O)NCC2 [compound 722, 3-[(3-chloro-2-methoxyphenyl)amino]-2-(2-[[(2S)-oxolan-2-ylmethyl]amino]pyrimidin-4-yl)-1H,5H,6H,7H-pyrrolo[3,2-c]pyridin-4-one]	
> 1000 nM	100 to 1000 nM	100 to 1000 nM	100 to 1000 nM	100 to 1000 nM	< 100 nM	COc1c(Cl)cccc1Nc1c(-c2ccnc(NCCF)n2)[nH]c2c1C(=O)NCC2 [compound 710, 3-[(3-chloro-2-methoxyphenyl)amino]-2-[2-[(2-fluoroethyl)amino]pyrimidin-4-yl]-1H,5H,6H,7H-pyrrolo[3,2-c]pyridin-4-one]	
> 1000 nM	> 1000 nM	> 1000 nM	> 1000 nM	> 1000 nM	100 to 1000 nM	COc1c(Cl)cccc1Nc1c(-c2ccnc(NC[C@H]3CCCO3)n2)[nH]c2c1C(=O)NCC2 [compound 721, (R)-3-((3-chloro-2-methoxyphenyl)amino)-2-(2-(((tetrahydrofuran-2-yl)methyl)amino)pyrimidin-4-yl)-1,5,6,7-tetrahydro-4H-pyrrolo[3,2-c]pyridin-4-one]	
> 1000 nM	> 1000 nM	100 to 1000 nM	100 to 1000 nM	100 to 1000 nM	< 100 nM	COc1c(Cl)cccc1Nc1c(-c2ccnc(NC3CC3)n2)[nH]c2c1C(=O)NCC2 [compound 112]	
> 1000 nM		> 1000 nM	> 1000 nM	100 to 1000 nM	100 to 1000 nM	Nc1nccc(-c2[nH]c3c(c2Nc2cccc4c2OCO4)C(=O)NCC3)n1 [compound 306]	
